{"source": "patent US12139458B2", "about": "“(2,5-dioxopyrrolidin-1-yl)(phenyl)-acetamide derivatives and their use in the treatment of neurological diseases” (UNIWERSYTET JAGIELLONSKI, priority 2019, dated 2024)", "key": {"[1]": {"test_system": "male white Swiss mice (CD-1)", "assay": "Oxaliplatin-induced neuropathy, Cold Plate test", "format": "in vivo", "details": "OXPT-induced neuropathy, plate 2° C.", "procedure": "Oxaliplatin (OXPT) was dissolved in a 5% glucose solution, followed by intraperitoneal administration to mice. A single dose of 10 mg/kg was used. Tactile and thermal (sensation of low temperature) allodynia associated with oxaliplatin-induced neuropathy are characterized by two phases. The early phase is acute and develops soon after administration of the OXPT, while the symptoms of the later (chronic) phase (associated with neurons damage), develops after a few days. Behavioral tests in mice with OXPT-induced neuropathy were carried out 7 days after its administration, i.e. in the late phase of neuropathy.\nThe effect of the test compound on thermal allodynia was evaluated in a Cold Plate test using specialized equipment—Cold/Hot Plate; Bioseb, France. The animals were placed individually on a metal plate cooled to 2° C. using the thermostated device. The observed nociceptive reactions of animals included licking and/or characteristic hind paw lift or bounce. The observation time was set at 60 s to eliminate the potential risk of tissue damage and minimize animal discomfort. Similar to the Von Frey test, the measurement was performed 3 times.\nCompound 6 was administered at doses of 10, 20 and 30 mg/kg."}, "[2]": {"molecular_target": "TRPV1 receptor (VR1) (h) (Homo sapiens, UniProt Q8NER1)", "sequence (Q8NER1 whole entry)": "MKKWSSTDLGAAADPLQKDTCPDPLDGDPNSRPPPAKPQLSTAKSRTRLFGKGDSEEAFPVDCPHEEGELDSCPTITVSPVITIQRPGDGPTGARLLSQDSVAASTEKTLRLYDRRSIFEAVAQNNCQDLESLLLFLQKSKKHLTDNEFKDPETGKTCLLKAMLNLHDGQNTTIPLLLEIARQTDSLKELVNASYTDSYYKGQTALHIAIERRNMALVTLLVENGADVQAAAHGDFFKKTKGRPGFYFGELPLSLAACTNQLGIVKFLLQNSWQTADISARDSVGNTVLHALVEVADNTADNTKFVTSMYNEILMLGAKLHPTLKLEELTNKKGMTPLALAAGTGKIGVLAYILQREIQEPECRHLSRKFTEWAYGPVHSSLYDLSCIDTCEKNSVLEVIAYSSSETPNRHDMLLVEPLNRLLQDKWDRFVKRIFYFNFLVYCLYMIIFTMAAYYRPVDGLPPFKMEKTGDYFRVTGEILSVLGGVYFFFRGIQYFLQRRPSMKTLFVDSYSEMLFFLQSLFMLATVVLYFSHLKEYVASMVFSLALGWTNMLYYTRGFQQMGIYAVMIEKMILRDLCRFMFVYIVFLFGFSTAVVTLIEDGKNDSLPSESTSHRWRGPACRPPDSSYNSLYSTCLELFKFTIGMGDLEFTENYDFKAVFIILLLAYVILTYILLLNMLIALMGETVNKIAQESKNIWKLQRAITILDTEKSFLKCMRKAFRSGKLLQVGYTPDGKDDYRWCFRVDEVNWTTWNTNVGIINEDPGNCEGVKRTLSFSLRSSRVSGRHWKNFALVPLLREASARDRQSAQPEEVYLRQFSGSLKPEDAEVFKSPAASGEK", "assay": "TRPV1 receptor functional study (antagonist effect)", "format": "cell-based", "details": "human recombinant cells (CHO), read-out: % Inhibition of agonist control responses, TRPV1 receptor (antagonist effect)", "from_the_text": "A unique feature of the compound 6 representing compounds of formula (II) according to the invention is the inhibition of calcium currents by blocking the transient receptor potential vanilloid type 1 (TRPV1). This effect has not been disclosed for known AEDs. TRPV1 receptor antagonism may determine the antinociceptive effect of the compounds disclosed herein. The role of the TRPV1 receptor in conduction of pain stimuli has been well documented in specialist literature (Szallasi, A.; Cortright, D. N.; Blum, C. A.; Eid, S. R. Nat. Rev. Drug. Discov. 2007, 6, 357-372). The compounds according to the invention are characterized by a complex mechanism of action, which is not described for known anticonvulsants. It should be emphasized, however, that further in vitro studies may reveal further molecular targets responsible for the pharmacological action of substances being the subject of current patent claim. The results of binding studies (sodium channel, calcium channel) and functional tests (TRPV1 receptor) for compound 6 are shown in Table 3."}, "[3]": {"molecular_target": "T1, CYP3A4 (Homo sapiens, UniProt P08684)", "T1 construct": "purchased Promega (Madison, WI, USA)", "T1 sequence (P08684 whole entry)": "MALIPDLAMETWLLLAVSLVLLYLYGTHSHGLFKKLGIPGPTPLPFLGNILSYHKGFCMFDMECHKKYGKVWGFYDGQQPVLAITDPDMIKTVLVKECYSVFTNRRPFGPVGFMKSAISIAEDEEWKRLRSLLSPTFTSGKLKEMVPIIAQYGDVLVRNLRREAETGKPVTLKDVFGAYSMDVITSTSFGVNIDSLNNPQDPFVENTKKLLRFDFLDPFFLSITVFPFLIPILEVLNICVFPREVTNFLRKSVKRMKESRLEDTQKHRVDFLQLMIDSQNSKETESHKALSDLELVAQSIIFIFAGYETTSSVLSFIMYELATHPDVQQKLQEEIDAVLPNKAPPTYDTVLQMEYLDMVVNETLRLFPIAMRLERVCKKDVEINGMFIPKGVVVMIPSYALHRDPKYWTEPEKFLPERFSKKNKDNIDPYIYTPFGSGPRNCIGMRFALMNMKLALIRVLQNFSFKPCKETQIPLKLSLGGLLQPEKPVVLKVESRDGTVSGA", "assay": "CYP3A4 P450-Glo luminescence test", "format": "in vitro ADME", "procedure": "Effect of compound 6 on cytochrome P-450 3A4 and 2D6 activity. The research was conducted using commercial luminescence tests CYP3A4 P450-Glo™ and CYP2D6 P450-Glo™ from Promega (Madison, WI, USA) based on the methodology described in the literature (Socała, K.; Mogilski, S.; Pieróg, M.; Nieoczym, D.; Abram, M.; Szulczyk, B.; Lubelska, A.; Latacz, G.; Doboszewska, U.; Wlaź, P.; Kamiński, K. ACS Chem. Neurosci. 2018, doi: 10.1021/acschemneuro.8b00476; Latacz, G.; Lubelska, A.; Jastrzȩbska-Wiȩek, M.; Partyka, A.; Sobato, A.; Olejarz, A.; Kucwaj-Brysz, K.; Satata, G.; Bojarski, A. J.; Wesołowska, A.; Kieć-Kononowicz, K.; Handzlik, J. Chem. Biol. Drug. Des. 2017, 90, 1295-1306). The CYP isoforms selected for study are responsible for the metabolism of approximately 40-50% of the drugs available on the market, and their stimulation or inhibition determines the majority of metabolic drug interactions. […] In summary, the results obtained indicate a low probability of potential metabolic interactions caused by 6."}, "[4]": {"assay": "Metabolic stability in human liver microsomes", "format": "in vitro ADME", "procedure": "Metabolic stability. The metabolic stability of compound 6 was evaluated using human liver microsomes (HLMs). Internal clearance values CLint were calculated by monitoring changes in compound concentration in the presence of microsomes per unit of time, according to the procedure proposed by Obach R. S. (Obach, R. S. Drug Metab. Dispos. 1999, 27, 1350-1359).\nMetabolic stability tests—methodology. Metabolic stability studies for compound 6 were performed using HLMs (Promega, Madison, WI, USA). For this purpose, 10 μL of compound 6 at a concentration of 1000 μM was diluted with 132 μL with tris-HCl buffer (100 mM, pH 7.4), followed by the addition of 8 μL of appropriate microsomes. The reaction mixture was preincubated at 37° C. for 5 minutes, followed by the addition of 50 μL of NADPH Regeneration System, supplied by Promega (Madison, WI, USA). After mixing, the whole mixture was incubated at 37° C. for 120 minutes. To complete the reaction, 200 μL of cold methanol was added to the tubes and centrifuged. The supernatant was subjected to UPLC/MS analysis, including fragmentation analysis. Four mixtures of 6 with HLMs were prepared to determine the internal clearance CLint. Each of these reactions was completed at a different time point, after 5, 15, 30 and 45 min, by the addition of cold methanol containing 50 μM internal standard. Then, according to literature guidelines (Obach, R. S. Drug Metab. Dispos. 1999, 27, 1350-1359), based on the plot of the relationship between the height of the peak from 6 and the height of the internal standard, the regression equation was determined and the reaction rate constant k was calculated. Then the constant k was substituted to equation (1).\nThe calculated t1/2 value was then substituted into equation (2): […]"}}}
{"smiles": "O=C(C(c1ccccc1)N1C(=O)CCC1=O)N1CCN(c2cccc(C(F)(F)F)c2)CC1", "note": "(racemic) [Compound 6, 1-(2-Oxo-1-phenyl-2-(4-(3-(trifluoromethyl)phenyl)piperazin-1-yl)ethyl)pyrrolidine-2,5-dione]", "values": [{"measurement": "effect on thermal allodynia in the cold plate test", "setting": "[1]", "value": "significantly increased thermal allodynia sensitivity"}, {"measurement": "inhibition at 100 µM", "setting": "[2]", "value": 71.7, "unit": "%"}, {"measurement": "effect on CYP3A4 activity", "setting": "[3]", "value": "no effect"}, {"measurement": "metabolites found by UPLC after incubation with HLMs", "setting": "[4]; 120 min incubation, UPLC/MS", "value": "three metabolites M1-M3"}, {"measurement": "CLint scaled at 50 µM", "setting": "[4]; human, human liver microsomes, pH 7.4, incubation with HLMs, read-out: internal clearance CLint", "value": 5.8, "unit": "mL/min/kg"}, {"measurement": "internal clearance CLint", "setting": "[4]; incubation with HLMs", "value": 5.6, "unit": "mL/min/kg"}]}
